The target in data set [1] is T1, Nuclear receptor ROR-gamma (Homo sapiens) (UniProt P51449).
T1 sequence (whole entry): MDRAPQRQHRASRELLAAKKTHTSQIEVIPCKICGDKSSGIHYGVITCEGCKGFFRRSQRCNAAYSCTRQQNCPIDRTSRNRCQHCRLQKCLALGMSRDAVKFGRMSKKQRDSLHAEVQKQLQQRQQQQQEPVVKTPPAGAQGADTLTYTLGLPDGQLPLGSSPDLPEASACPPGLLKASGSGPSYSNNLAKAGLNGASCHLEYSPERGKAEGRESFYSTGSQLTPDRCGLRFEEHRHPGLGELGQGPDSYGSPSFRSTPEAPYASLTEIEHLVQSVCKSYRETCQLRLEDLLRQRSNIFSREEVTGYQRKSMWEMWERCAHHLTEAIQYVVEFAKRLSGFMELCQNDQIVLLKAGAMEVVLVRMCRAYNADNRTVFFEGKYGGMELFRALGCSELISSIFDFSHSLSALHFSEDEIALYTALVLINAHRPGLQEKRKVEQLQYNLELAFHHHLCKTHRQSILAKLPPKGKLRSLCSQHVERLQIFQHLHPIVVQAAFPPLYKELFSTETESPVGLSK
The experiment in a line: Inhibition of human RORgamma by TR-FRET assay relative to control. On the technique in general: TR-FRET usually uses a lanthanide donor and a delayed reading to cut background.

Data set [2] in a line: Inhibition of IL-17 production in human Th17 cells relative to control. Type of data set: functional.
A short description of data set [3]: cells. The following applies: Homo sapiens, Th17.
A short description of data set [4]: Oral bioavailability in rat. Format: ADME, organism-based. The following applies: in vivo.
The nature of data set [5]: Oral bioavailability in dog. Type of data set: ADME, organism-based, Canis lupus familiaris. The following applies: in vivo.
Data set [6] in a line: Solubility of the compound. Type of data set: physicochemical.
Data set [7] can be described thus: Unbound fraction in human plasma. Format: ADME, cell-free.
Data set [8] is described as follows: Inhibition of IL-17 production in human BAL cells isolated from COPD patients measured after 72 hrs by ELISA based assay. Type of data set: functional. The following applies: Bronchoalveolar lavage cell. A general note: ELISA stands for enzyme-linked immunosorbent assay.
Data set [9] can be described thus: Inhibition of IL-17 production in human PBMC isolated from COPD patients measured after 72 hrs by ELISA based assay. Type of data set: functional, cell-based.
The nature of data set [10]: Inhibition of IL-17A production in human PBMC derived from rheumatoid arthritis. Type of data set: functional, cell-based.
For data set [11], the system named is Mus musculus. The experiment in a line: Anti-arthritis activity against collagen-induced arthritis DBA/1Lacj mouse model assessed as arthritis clinical score at 60 mg/kg, po twice daily from day 21 to 35 relative to control. Type of data set: functional. Conditions: 504 h.
For data set [12], the system named is Mus musculus. The experiment in a line: Anti-arthritis activity against collagen-induced arthritis DBA/1Lacj mouse model assessed as arthritis clinical score at 30 mg/kg, po twice daily from day 21 to 35 relative to control. Format: functional. Conditions: 504 h.
Data set [13] has as its system Mus musculus. Put plainly: Anti-arthritis activity against collagen-induced arthritis DBA/1Lacj mouse model assessed as arthritis clinical score at 10 mg/kg, po twice daily from day 21 to 35 relative to control. Format: functional. The following applies: 504 h.
Data set [14] concerns the target T2, Nuclear receptor ROR-gamma (Homo sapiens, UniProt P51449).
T2 sequence (P51449 whole entry): T1 sequence (whole entry)
Put plainly: Inhibition of human GAL4-fused RORgammat LBD transfected in Escherichia coli BL21(DE3) cell measured after 16 hrs by HTRF assay.

Data set [15] is described as follows: cells. The following applies: Homo sapiens, PBMC, 96 h.
Description: Inhibition of IL17 production in human PBMC cells measured after 4 days by enzyme-linked immunosorbent assay
Data set [16] has as its target T2, Nuclear receptor ROR-gamma. The experiment in a line: Inhibition of transactivation of Gal4-tagged RORgamma (unknown origin) transfected in human HG5LN cells incubated for 18 hrs by luciferase reporter gene assay. Type of data set: cell-based.
Data set [17] concerns the target T2, Nuclear receptor ROR-gamma. The experiment in a line: Inverse agonist activity at human GAL4-RORgamma […] expressed in HEK293 cells measured after 24 hrs by ligand binding assay. Type of data set: cell-based.
Data set [18] addresses T2, Nuclear receptor ROR-gamma. Put plainly: Inhibition of human GAL4-fused RORgamma LBD transfected in HEK293T cell measured after 24 hrs by luciferase reporter assay. Type of data set: cell-based. In general terms: In a reporter assay the amount or activity of a reporter protein is the signal.
Data set [19] can be described thus: Inhibition of IL-17A production in human PBMC by ELISA. Format: functional, cell-based.
Data set [20] is described as follows: Inhibition of IL-17F production in human PBMC by ELISA. Format: functional, cell-based.
Data set [21] in a line: Inhibition of IL-21 production in human PBMC by ELISA. Format: functional, cell-based.
Data set [22] is described as follows: Inhibition of IL-22 production in human PBMC by ELISA. Type of data set: functional, cell-based.
Data set [23] deals with T2, Nuclear receptor ROR-gamma. The experiment in a line: Inhibition of human RORgammat expressed in COS7 cells by luciferase assay. Type of data set: cell-based.
Data set [24] can be described thus: cells. The following applies: Homo sapiens, PBMC.
Data set [25] addresses T2, Nuclear receptor ROR-gamma. Put plainly: Antagonist activity at RORgammat LBD (unknown origin) assessed as fluorescent polarization signal measured in presence of fluorescein-labeled LXR agonist T0901317 after 4 hrs by competitive binding assay.

15 molecules from ChEMBL document CHEMBL5260836, “Combating Autoimmune Diseases With Retinoic Acid Receptor-Related Orphan Receptor-γ (RORγ or RORc) Inhibitors: Hits and Misses” (J Med Chem, 2018) can be followed below.

Structures are written as SMILES. Values after ≈ are worked out from the molar mass of the structure shown.

One may read the IC50 as the point on the concentration scale where inhibition reaches its midpoint. For the molecule `O=C(Nc1ccc2c(c1)CN(S(=O)(=O)c1cccc(C(F)(F)F)c1)CCO2)c1c(F)cccc1Cl`, the Efficacy was -69% in data set [1] and -73% in data set [2]. Also, the midpoint of inhibition in data set [3], the IC50, lay at 180 nM.

Broadly, the bioavailability is the share of a dose that reaches the circulation, judged against a reference dose that is usually intravenous. The solubility is the dissolved amount per volume that the medium holds. A lower solubility goes with little dissolved substance. For orientation: fraction unbound means free concentration divided by total concentration. Read a high fraction unbound as much free substance. In the case of `CC(=O)N1Cc2cc(S(C)(=O)=O)ccc2[C@@H]1C(=O)Nc1ccc(C(O)(C(F)(F)F)C(F)(F)F)cc1`, the values for the bioavailability in [4] and in data set [5] were 34% and 96%, respectively. Also, in [6], the solubility was 380 µM (≈ 199 µg/mL). The molecule further had a fraction unbound in data set [7] of 0.16.

As to `CCn1c(C(C)(C)Oc2ccc(F)cc2F)nc2cc(NC(=O)Cc3ccc(S(=O)(=O)CC)cc3)ccc21`, the IC50 in [8] was 350 nM; in data set [9], 147 nM.

The inhibition in vivo is the change of the read-out against control, counted positive when it falls. `COc1nc2ccc([C@](O)(c3ccc(C)nc3C)c3cnnn3C)cc2c(Cl)c1Cc1ccc(C(F)(F)F)cc1`: it took 5 nM to reach half-maximal inhibition in data set [10] (IC50). Also, in [11], the inhibition in vivo at 60 mg/kg worked out at 78%. In [12], the inhibition in vivo at 30 mg/kg amounted to 46%. The inhibition in vivo at 10 mg/kg in [13] worked out at 32%.

In data set [3], `COc1c(NC(=O)c2cccc(C#N)c2)cnc2c1c(C1CCN(C(=O)C3CCCC3)CC1)cn2C` showed an IC50 of 29.8 nM.

Molecule `O=C(O)c1ccc(-c2nn(C(=O)c3c(Cl)cccc3C(F)(F)F)c3cccnc23)c(F)c1` registered an IC50 in data set [14] of 2 nM.

The molecule `O=C(Nc1ccc2c(c1)CN(S(=O)(=O)c1cccc(C(F)(F)F)c1)CCC2)c1c(F)cccc1Cl` yielded an IC50 in [3] of 40 nM.

As for `O=C(O)c1ccc(-c2nn(C(=O)c3c(Cl)cccc3C(F)(F)F)c3ccccc23)cc1`, inhibition in data set [15] was half-maximal at 39.6 nM (IC50).

In turn, `Cc1ccc(N(CC(C)C)S(=O)(=O)c2ccc3c(c2)[nH]c(=O)n3CC2CCOCC2)c(C)c1` registered an IC50 in [16] of 19 nM.

Consider `O=C(O)CC1CN(Cc2ccc(-c3ccc(C(O)(C(F)(F)F)C(F)(F)F)cc3)cc2)CCN1Cc1ccncc1` (stereo not drawn), for which the IC50 in data set [17] was above 10000 nM.

Regarding `CCS(=O)(=O)c1ccc(CNc2nc3c(C)nc(-c4c(C)ncnc4C4CC4)nc3n([C@@H](C)C3CC3)c2=O)nc1`, half-maximal inhibition in data set [18] (IC50) required 60 nM.

Regarding `O=S(=O)(c1ccccc1)N1CCC(Cn2ccc3nc(-c4cn[nH]c4)ccc32)CC1`, the IC50 in [19], in data set [20], in [21] and in data set [22] was below 10000 nM throughout.

`CCOC(=O)CC1CN(Cc2ccc(-c3ccc(C(O)(C(F)(F)F)C(F)(F)F)cc3)cc2)CCN1Cc1ccncc1` (stereo not drawn) registered an IC50 in [17] below 1000 nM.

In the case of `CCS(=O)(=O)c1ccc(CC(=O)Nc2cc(Cl)c(C3(c4noc(-c5ccc(F)cc5)n4)CC3)c(Cl)c2)cc1`, the concentration for half-maximal inhibition (IC50) in data set [23] came out at 2.1 nM; in data set [24], 6.6 nM.

Take `C[C@H]1CN(Cc2cncc(NS(=O)(=O)c3c(Cl)cc(Cl)cc3Cl)c2)CCN1C(=O)C1CCCC1`: in [25], the IC50 was 89 nM.
